# According to patent US20160113932A1, “TREATMENT OF CANCERS USING PI3 KINASE ISOFORM MODULATORS” (INFINITY PHARMACEUTICALS, INC., priority 2013, published 2016):
# Key:
# RPMI-8226 = experiment: Combination with BTK inhibitor, 72 h ATPLite, 6x6 dose matrix (multiple myeloma); type: cell-based; details: in combination with Compound 292
# Protocol: (§1) The method is described as follows. Cells are thawed from a liquid nitrogen preserved state. Once cells have been expanded and divide at their expected doubling times, screening begins. Cells are seeded in growth media in either black 1536-well or 384-well tissue culture treated plates. […] These Tzero (T0) plates are read using ultra-sensitive luminescence on Envision plate readers (Perkin Elmer). […] All data points are collected via automated processes, quality controlled and analyzed using Zalicus software.
# (§2) I ranges from 0% (when T=V) to 100% (when T=0). […] The measure of effect in the experiment can be the inhibition of cellular response relative to the untreated level (vehicle alone). For untreated vehicle and treated levels V and T, a fractional inhibition 1=1−T/V is calculated. The inhibition ranges from 0% at the untreated level to 100% when T=0 Inhibition levels are negative for agents that actually increase levels. Other effect measures, such as an activity ratio r=T/V may be more appropriate for some assays. When activity ratios (e.g, fold increase over […] control) are being used, the effect can be measured using an induction I=1n(T/V). With this definition, all effect expressions are the same as for inhibition.
# (§3) Growth Inhibition (GI) is used as a measure of cell viability. […] A GI reading of 100% represents complete growth inhibition-T72 compound-treated and T0 vehicle signals are matched. […] A GI reading of 200% represents complete death of all cells in the culture well. Compounds reaching an activity plateau of GI 200% are considered cytotoxic. GI is calculated by applying the following test and equation: […]
# (§4) Combination analysis data were collected in a 6×6 dose matrix. Synergy is calculated by comparing a combination's response to those of its single compound, against the drug-with-itself dose-additive reference model. Deviations from dose additivity may be assessed visually on an isobologram or numerically with a Combination Index (CI). […] Additive effect is CI=1.0. […] Antagonistic effect is CI>1.0.
# (§5) To measure combination effects in excess of Loewe additivity, a scalar measure to characterize the strength of synergistic interaction termed the Synergy Score is devised. The Synergy Score is calculated as: […]
# The fractional inhibition for each component agent and combination point in the matrix is calculated relative to the median of all vehicle-treated control wells. The Synergy Score equation integrates the experimentally-observed activity volume at each point in the matrix in excess of a model surface numerically derived from the activity of the component agents using the Loewe model for additivity. […]
# DOHH-2 = details: in combination with Compound 292
# Protocol: as §1, §2, §3, §4, §5
# (§6) The fractional inhibition for each component agent and combination point in the matrix is calculated relative to the median of all vehicle-treated control wells. The Synergy Score equation integrates the experimentally-observed activity volume at each point in the matrix in excess of a model surface numerically derived from the activity of the component agents using the Loewe model for additivity. Additional terms in the Synergy Score equation (above) are used to normalize for various dilution factors used for individual agents and to allow for comparison of synergy scores across an entire experiment. The inclusion of positive inhibition gating or an Idata multiplier removes noise near the zero effect level, and biases results for synergistic interactions at that occur at high activity levels.
# (§7) Loewe Volume (Loewe Vol) is used to assess the overall magnitude of the combination interaction in excess of the Loewe additivity model. Loewe Volume is particularly useful when distinguishing synergistic increases in a phenotypic activity (positive Loewe Volume) versus synergistic antagonisms (negative Loewe Volume). […] This model defines additivity as a non-synergistic combination interaction where the combination dose matrix surface should be indistinguishable from either drug crossed with itself.
# KARPAS-299 = details: in combination with Compound 292
# Protocol: as §1, §2, §3, §4, §5, §6, §7
# SU-DHL-4-epst = details: in combination with Compound 292
# Protocol: as §1, §2, §3, §4, §5, §6, §7
# Farage = details: in combination with Compound 292
# Protocol: as §1, §2, §3, §4, §5, §6, §7
# U-2932 = details: in combination with Compound 292
# Protocol: as §1, §2, §3, §4, §5, §6, §7
# HH = details: in combination with Compound 292
# Protocol: as §1, §2, §3, §4, §5, §6, §7
# HBL-1 = details: in combination with Compound 292
# Protocol: as §1, §2, §3, §4, §5, §6, §7
# NCI-H929 = details: in combination with Compound 292
# Protocol: as §1, §2, §3, §4, §5, §6, §7
# Jeko-1 = details: in combination with Compound 292
# Protocol: as §1, §2, §3, §4, §5, §6, §7
# Mino = details: in combination with Compound 292
# Protocol: as §1, §2, §3, §4, §5, §6, §7
# OCI-LY3 = details: in combination with Compound 292
# Protocol: as §1, §2, §3, §4, §5, §6, §7
# KARPAS-422 = details: in combination with Compound 292
# Protocol: as §1, §2, §3, §4, §5, §6, §7
# OPM-2 = details: in combination with Compound 292
# Protocol: as §1, §2, §3, §4, §5, §6, §7
# TMD8 = details: in combination with Compound 292
# Protocol: as §1, §2, §3, §4, §5, §6, §7
# GRANTA-519 = details: in combination with Compound 292
# Protocol: as §1, §2, §3, §4, §5, §6, §7
# SU-DHL-10-epst = details: in combination with Compound 292
# Protocol: as §1, §2, §3, §4, §5, §6, §7
# WSU-NHL = details: in combination with Compound 292
# Protocol: as §1, §2, §3, §4, §5, §6, §7
# OCI-Ly7 = details: in combination with Compound 292
# Protocol: as §1, §2, §3, §4, §5, §6, §7
# RL = experiment: Combination with BTK inhibitor, 72 h ATPLite, 6x6 dose matrix (follicular lymphoma); type: cell-based; details: in combination with Compound 292
# Protocol: as §1, §2, §3, §4, §5, §6, §7
# PI3K δ = PI3K δ (Homo sapiens, UniProt O00329); experiment: PI3K lipid kinase inhibition assay (TLC or HTRF), PI3K δ; type: biochemical; parameters: purchased Upstate; details: In Vitro
# PI3K δ, sequence (O00329 whole entry): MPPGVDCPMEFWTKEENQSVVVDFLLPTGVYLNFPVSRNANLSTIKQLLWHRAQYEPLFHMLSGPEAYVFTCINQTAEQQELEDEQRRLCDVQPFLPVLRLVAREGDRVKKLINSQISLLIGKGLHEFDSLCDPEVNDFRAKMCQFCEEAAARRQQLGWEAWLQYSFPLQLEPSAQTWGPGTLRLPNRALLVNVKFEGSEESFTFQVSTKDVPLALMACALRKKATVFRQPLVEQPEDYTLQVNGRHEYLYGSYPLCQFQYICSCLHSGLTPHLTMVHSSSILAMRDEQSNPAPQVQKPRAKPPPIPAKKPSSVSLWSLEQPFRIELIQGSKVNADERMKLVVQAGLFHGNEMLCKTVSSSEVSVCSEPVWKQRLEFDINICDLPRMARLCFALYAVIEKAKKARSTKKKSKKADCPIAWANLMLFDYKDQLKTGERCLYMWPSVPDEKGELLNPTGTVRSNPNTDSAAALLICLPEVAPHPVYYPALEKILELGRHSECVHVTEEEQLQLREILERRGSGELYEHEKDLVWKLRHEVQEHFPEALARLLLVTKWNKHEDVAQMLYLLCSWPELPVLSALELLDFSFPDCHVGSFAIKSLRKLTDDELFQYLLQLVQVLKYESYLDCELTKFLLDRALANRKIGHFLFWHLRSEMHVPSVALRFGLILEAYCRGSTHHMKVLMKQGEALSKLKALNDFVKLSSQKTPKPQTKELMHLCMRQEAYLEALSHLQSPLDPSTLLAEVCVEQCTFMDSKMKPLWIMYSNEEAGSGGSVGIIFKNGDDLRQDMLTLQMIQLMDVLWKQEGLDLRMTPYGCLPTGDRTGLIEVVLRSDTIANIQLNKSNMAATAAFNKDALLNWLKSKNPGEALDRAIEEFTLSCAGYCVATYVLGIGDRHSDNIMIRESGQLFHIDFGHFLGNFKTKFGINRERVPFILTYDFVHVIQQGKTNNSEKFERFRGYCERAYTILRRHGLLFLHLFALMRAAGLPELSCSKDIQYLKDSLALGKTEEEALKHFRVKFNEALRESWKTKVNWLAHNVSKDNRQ
# PI3K δ, sequence (P27986 whole entry partner): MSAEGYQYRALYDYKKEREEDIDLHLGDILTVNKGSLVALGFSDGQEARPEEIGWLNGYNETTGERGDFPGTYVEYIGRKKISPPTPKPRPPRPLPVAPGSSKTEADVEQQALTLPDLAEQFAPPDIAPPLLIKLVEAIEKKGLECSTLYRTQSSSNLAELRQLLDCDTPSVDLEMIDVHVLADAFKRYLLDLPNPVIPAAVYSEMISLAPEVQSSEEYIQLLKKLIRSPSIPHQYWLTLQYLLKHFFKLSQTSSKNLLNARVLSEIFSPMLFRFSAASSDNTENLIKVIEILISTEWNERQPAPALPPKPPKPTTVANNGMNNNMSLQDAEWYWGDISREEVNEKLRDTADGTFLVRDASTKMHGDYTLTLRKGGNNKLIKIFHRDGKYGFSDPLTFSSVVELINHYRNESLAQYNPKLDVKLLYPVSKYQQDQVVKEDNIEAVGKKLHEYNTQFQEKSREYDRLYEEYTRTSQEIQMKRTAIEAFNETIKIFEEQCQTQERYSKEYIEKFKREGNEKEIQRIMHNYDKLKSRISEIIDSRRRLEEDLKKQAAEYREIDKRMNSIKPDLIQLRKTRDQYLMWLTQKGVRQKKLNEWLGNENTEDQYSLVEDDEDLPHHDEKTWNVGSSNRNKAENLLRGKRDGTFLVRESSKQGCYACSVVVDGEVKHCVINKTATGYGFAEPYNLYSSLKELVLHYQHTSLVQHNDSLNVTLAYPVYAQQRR
# Description: (§8) Other commercial kits or systems for assaying PI3K activities are available. […] An exemplary system is PI 3-Kinase (human) HTRF™ Assay from Upstate.
# PI3K γ = molecular target: T1, PI3K γ (Homo sapiens, UniProt P48736); experiment: PI3K lipid kinase inhibition assay (TLC or HTRF), PI3K γ; type: biochemical; details: In Vitro
# T1 construct: purchased Sigma
# T1 sequence (P48736 whole entry): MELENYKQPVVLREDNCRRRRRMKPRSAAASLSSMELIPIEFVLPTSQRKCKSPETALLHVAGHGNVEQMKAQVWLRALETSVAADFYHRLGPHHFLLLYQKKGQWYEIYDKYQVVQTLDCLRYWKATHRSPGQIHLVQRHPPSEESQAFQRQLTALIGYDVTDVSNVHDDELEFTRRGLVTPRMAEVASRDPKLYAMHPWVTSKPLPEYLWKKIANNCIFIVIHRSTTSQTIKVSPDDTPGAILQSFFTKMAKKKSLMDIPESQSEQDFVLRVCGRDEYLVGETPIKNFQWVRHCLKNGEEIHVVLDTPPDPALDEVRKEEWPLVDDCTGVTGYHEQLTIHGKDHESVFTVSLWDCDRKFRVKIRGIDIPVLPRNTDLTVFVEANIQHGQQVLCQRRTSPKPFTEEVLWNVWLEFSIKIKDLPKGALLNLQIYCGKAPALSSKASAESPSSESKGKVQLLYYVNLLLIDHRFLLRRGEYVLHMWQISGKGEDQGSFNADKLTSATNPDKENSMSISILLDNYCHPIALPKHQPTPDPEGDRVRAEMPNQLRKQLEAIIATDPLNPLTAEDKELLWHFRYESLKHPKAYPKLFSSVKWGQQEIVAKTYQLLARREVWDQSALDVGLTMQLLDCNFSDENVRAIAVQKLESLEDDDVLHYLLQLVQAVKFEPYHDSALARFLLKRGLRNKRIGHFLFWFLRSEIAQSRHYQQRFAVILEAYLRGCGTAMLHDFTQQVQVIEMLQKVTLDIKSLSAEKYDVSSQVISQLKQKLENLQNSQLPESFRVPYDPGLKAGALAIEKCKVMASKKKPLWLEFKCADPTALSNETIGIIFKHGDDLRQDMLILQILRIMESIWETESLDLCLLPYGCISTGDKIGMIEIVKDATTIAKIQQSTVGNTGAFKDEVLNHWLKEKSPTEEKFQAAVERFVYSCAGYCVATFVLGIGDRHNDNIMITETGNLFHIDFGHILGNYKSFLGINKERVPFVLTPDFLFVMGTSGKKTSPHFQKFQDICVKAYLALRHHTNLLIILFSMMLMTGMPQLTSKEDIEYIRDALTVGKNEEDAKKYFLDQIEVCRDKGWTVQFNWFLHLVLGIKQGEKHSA
# Description: as §8
# PI3K β = molecular target: T2, PI3K β (Homo sapiens, UniProt P42338); experiment: PI3K lipid kinase inhibition assay (TLC or HTRF), PI3K β; type: biochemical; details: In Vitro
# T2 construct: purchased Upstate
# T2 sequence (P42338 whole entry): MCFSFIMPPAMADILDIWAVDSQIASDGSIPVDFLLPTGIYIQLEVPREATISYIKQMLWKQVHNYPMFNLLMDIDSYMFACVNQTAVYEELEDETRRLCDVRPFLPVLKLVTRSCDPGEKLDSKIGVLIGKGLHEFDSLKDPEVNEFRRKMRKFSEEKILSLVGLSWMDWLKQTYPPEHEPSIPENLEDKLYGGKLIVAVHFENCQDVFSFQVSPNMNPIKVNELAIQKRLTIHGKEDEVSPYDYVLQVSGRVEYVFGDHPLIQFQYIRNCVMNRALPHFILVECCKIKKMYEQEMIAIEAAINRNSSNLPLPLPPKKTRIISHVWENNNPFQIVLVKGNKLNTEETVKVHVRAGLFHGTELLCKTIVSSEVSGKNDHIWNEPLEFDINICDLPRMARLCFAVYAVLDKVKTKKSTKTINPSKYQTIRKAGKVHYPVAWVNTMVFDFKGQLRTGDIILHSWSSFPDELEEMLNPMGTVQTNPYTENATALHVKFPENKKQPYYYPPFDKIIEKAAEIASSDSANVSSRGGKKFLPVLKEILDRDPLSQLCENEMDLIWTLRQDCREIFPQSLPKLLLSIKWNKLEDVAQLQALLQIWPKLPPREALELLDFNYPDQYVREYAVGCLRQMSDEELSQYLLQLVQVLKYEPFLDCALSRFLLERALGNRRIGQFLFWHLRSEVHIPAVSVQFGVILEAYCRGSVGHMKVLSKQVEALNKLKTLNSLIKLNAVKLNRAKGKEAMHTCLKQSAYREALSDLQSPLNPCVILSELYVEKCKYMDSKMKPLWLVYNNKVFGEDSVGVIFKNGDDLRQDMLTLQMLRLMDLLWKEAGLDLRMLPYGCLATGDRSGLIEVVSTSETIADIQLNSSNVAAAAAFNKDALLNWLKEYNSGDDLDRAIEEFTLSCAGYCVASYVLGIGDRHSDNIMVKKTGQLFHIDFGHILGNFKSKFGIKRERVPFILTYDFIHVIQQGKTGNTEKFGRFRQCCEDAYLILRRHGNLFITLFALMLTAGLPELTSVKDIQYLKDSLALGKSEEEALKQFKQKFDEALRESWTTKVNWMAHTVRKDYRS
# T2 sequence (P27986 whole entry partner): as the sequence (P27986 whole entry partner) above
# Description: as §8
smiles,measurement,setting,value
"C=CC(=O)Nc1cccc(Nc2nc(Nc3ccc(OCCOC)cc3)ncc2F)c1 [AVL-292, N-(3-((5-fluoro-2-((4-(2-methoxyethoxy)phenyl)amino)pyrimidin-4-yl)amino)phenyl)acrylamide]",CI50 (growth inhibition),RPMI-8226,U (U=0.7 to <1)
same,CI50 (inhibition),RPMI-8226,W (W=≧1)
same,Synergy Score (growth inhibition),RPMI-8226,A1 (A1=0.0001 to <1)
same,Synergy Score (inhibition),RPMI-8226,A1 (A1=0.0001 to <1)
same,CI50 (growth inhibition),DOHH-2,T (T=0.5 to <0.7)
same,CI50 (inhibition),DOHH-2,T (T=0.5 to <0.7)
same,Synergy Score (growth inhibition),DOHH-2,A3 (A3=>3)
same,Synergy Score (inhibition),DOHH-2,A2 (A2=1 to <3)
same,CI50 (growth inhibition),KARPAS-299,U (U=0.7 to <1)
same,Synergy Score (growth inhibition),KARPAS-299,A1 (A1=0.0001 to <1)
same,Synergy Score (inhibition),KARPAS-299,A1 (A1=0.0001 to <1)
same,CI50 (growth inhibition),SU-DHL-4-epst,T (T=0.5 to <0.7)
same,CI50 (inhibition),SU-DHL-4-epst,S (S=0.01 to <0.5)
same,Synergy Score (growth inhibition),SU-DHL-4-epst,A2 (A2=1 to <3)
same,Synergy Score (inhibition),SU-DHL-4-epst,A2 (A2=1 to <3)
same,CI50 (growth inhibition),Farage,S (S=0.01 to <0.5)
same,CI50 (inhibition),Farage,S (S=0.01 to <0.5)
same,Synergy Score (growth inhibition),Farage,A3 (A3=>3)
same,Synergy Score (inhibition),Farage,A2 (A2=1 to <3)
same,CI50 (growth inhibition),U-2932,T (T=0.5 to <0.7)
same,CI50 (inhibition),U-2932,W (W=≧1)
same,Synergy Score (growth inhibition),U-2932,A2 (A2=1 to <3)
same,Synergy Score (inhibition),U-2932,A1 (A1=0.0001 to <1)
same,CI50 (growth inhibition),HH,T (T=0.5 to <0.7)
same,CI50 (inhibition),HH,U (U=0.7 to <1)
same,Synergy Score (growth inhibition),HH,A2 (A2=1 to <3)
same,Synergy Score (inhibition),HH,A2 (A2=1 to <3)
same,CI50 (growth inhibition),HBL-1,T (T=0.5 to <0.7)
same,CI50 (inhibition),HBL-1,W (W=≧1)
same,Synergy Score (growth inhibition),HBL-1,A2 (A2=1 to <3)
same,Synergy Score (inhibition),HBL-1,A1 (A1=0.0001 to <1)
same,CI50 (growth inhibition),NCI-H929,U (U=0.7 to <1)
same,CI50 (inhibition),NCI-H929,U (U=0.7 to <1)
same,Synergy Score (growth inhibition),NCI-H929,A2 (A2=1 to <3)
same,Synergy Score (inhibition),NCI-H929,A1 (A1=0.0001 to <1)
same,CI50 (growth inhibition),Jeko-1,U (U=0.7 to <1)
same,CI50 (inhibition),Jeko-1,U (U=0.7 to <1)
same,Synergy Score (growth inhibition),Jeko-1,A1 (A1=0.0001 to <1)
same,Synergy Score (inhibition),Jeko-1,A1 (A1=0.0001 to <1)
same,CI50 (growth inhibition),Mino,S (S=0.01 to <0.5)
same,CI50 (inhibition),Mino,S (S=0.01 to <0.5)
same,Synergy Score (growth inhibition),Mino,A3 (A3=>3)
same,Synergy Score (inhibition),Mino,A2 (A2=1 to <3)
same,CI50 (growth inhibition),OCI-LY3,U (U=0.7 to <1)
same,Synergy Score (growth inhibition),OCI-LY3,A1 (A1=0.0001 to <1)
same,Synergy Score (inhibition),OCI-LY3,A1 (A1=0.0001 to <1)
same,CI50 (growth inhibition),KARPAS-422,U (U=0.7 to <1)
same,CI50 (inhibition),KARPAS-422,T (T=0.5 to <0.7)
same,Synergy Score (growth inhibition),KARPAS-422,A2 (A2=1 to <3)
same,Synergy Score (inhibition),KARPAS-422,A1 (A1=0.0001 to <1)
same,CI50 (growth inhibition),OPM-2,T (T=0.5 to <0.7)
same,CI50 (inhibition),OPM-2,U (U=0.7 to <1)
same,Synergy Score (growth inhibition),OPM-2,A2 (A2=1 to <3)
same,Synergy Score (inhibition),OPM-2,A1 (A1=0.0001 to <1)
same,CI50 (growth inhibition),TMD8,S (S=0.01 to <0.5)
same,CI50 (inhibition),TMD8,S (S=0.01 to <0.5)
same,Synergy Score (growth inhibition),TMD8,A3 (A3=>3)
same,Synergy Score (inhibition),TMD8,A2 (A2=1 to <3)
same,CI50 (growth inhibition),GRANTA-519,W (W=≧1)
same,Synergy Score (growth inhibition),GRANTA-519,A1 (A1=0.0001 to <1)
same,Synergy Score (inhibition),GRANTA-519,A1 (A1=0.0001 to <1)
same,CI50 (growth inhibition),SU-DHL-10-epst,T (T=0.5 to <0.7)
same,CI50 (inhibition),SU-DHL-10-epst,T (T=0.5 to <0.7)
same,Synergy Score (growth inhibition),SU-DHL-10-epst,A3 (A3=>3)
same,Synergy Score (inhibition),SU-DHL-10-epst,A2 (A2=1 to <3)
same,CI50 (growth inhibition),WSU-NHL,T (T=0.5 to <0.7)
same,CI50 (inhibition),WSU-NHL,S (S=0.01 to <0.5)
same,Synergy Score (growth inhibition),WSU-NHL,A3 (A3=>3)
same,Synergy Score (inhibition),WSU-NHL,A2 (A2=1 to <3)
same,CI50 (growth inhibition),OCI-Ly7,W (W=≧1)
same,Synergy Score (growth inhibition),OCI-Ly7,A1 (A1=0.0001 to <1)
same,Synergy Score (inhibition),OCI-Ly7,A1 (A1=0.0001 to <1)
same,Synergy Score (growth inhibition),RL,A1 (A1=0.0001 to <1)
same,Synergy Score (inhibition),RL,A1 (A1=0.0001 to <1)
Cc1ccccc1-n1c(Cn2cnc3c(N)ncnc32)cc2cccc(C)c2c1=O [Compound 5],IC50,PI3K δ,< 10000 nM
same,IC50,PI3K γ,> 10000 nM
Cc1cccnc1-n1c(Cn2nc(-c3cccc(O)c3)c3c(N)ncnc32)cc2ccccc2c1=O [Compound 94],IC50,PI3K δ,< 1000 nM
same,IC50,PI3K γ,< 10000 nM
Cc1ccccc1-n1c(Cn2nc(I)c3c(N)ncnc32)cc2cccc(C)c2c1=O [Compound 104],IC50,PI3K γ,< 1000 nM
same,IC50,PI3K β,> 10000 nM
Cc1ccccc1-n1c(Cn2nc(-c3cc(O)cc(F)c3)c3c(N)ncnc32)cc2cccc(C)c2c1=O [Compound 113],IC50,PI3K β,< 10000 nM
Cc1ccccc1-n1c(Cn2nc(-c3cccc(O)c3)c3c(N)nccc32)cc2cccc(C)c2c1=O [Compound 119],IC50,PI3K δ,< 100 nM
